Assay [1] has as its system NF-κB p65. Nature of the assay: ELISA based NF-κB p65 inhibitory assay in HeLa cells. In kind it is cell-based. Conditions: for IC50: Homo sapiens, HeLa, read-out: NF-κB inhibitory activity IC50; for NF-κB inhibition activity (in words): HeLa cells, p65 ELISA. For orientation: In an ELISA, binding on a coated surface is turned into a signal by an enzyme label.
The subject of assay [2] is Staphylococcus aureus. The experiment in a line: Antimicrobial agar plate diffusion assay. Format: cell-based.
Assay [3] deals with Bacillus subtilis. Nature of the assay: Antimicrobial agar plate diffusion assay. In kind it is cell-based.
For assay [4], the system named is TAK1. Conditions: reported previously; cited from earlier work.
Assay [5] concerns Escherichia coli. Nature of the assay: Antimicrobial agar plate diffusion assay. Format: cell-based.

Structures are written as SMILES. Where only a bound is given, the exact number is not on record here.

Turning to `COc1cc(O)c2c(c1)/C=C/C[C@H](O)[C@H](O)[C@@H](O)/C=C/C[C@H](C)OC2=O` [compound 2, zeaenol], the 50% inhibitory concentration (IC50) in assay [1] was over 50 µM. For the same compound, the MIC in assay [2] and in assay [3] was over 500 µg/mL in each case.
With `C[C@H]1C/C=C\C(=O)[C@@H](O)[C@@H](O)C/C=C/c2cc(O)cc(O)c2C(=O)O1` [compound 1, 15-O-desmethyl-5Z-7-oxozeaenol], the “NF-κB inhibition activity (in words)” value in assay [1] was “sub-micromolar”.
For `COc1cc(O)c2c(c1)/C=C/C[C@H](O)[C@H](O)C(=O)/C=C\C[C@H](C)OC2=O` [compound 5, 5Z-7-oxozeaenol], the “NF-κB inhibition activity (in words)” value in assay [1] is given as “sub-micromolar”. The compound further returned an MIC in assay [2] of over 500 µg/mL. In assay [4], the TAK1 inhibition entry is reported as “potent inhibitor”.
On to `COc1cc(O)c2c(c1)/C=C/C[C@H](O)[C@H](O)[C@H](O)/C=C/C[C@H](C)OC2=O` [compound 3, 7-epi-zeaenol], for which the IC50 in assay [1] was over 50 µM. In assay [5], this compound displayed an MIC of over 500 µg/mL.
As to `CC1(C)S[C@@H]2[C@H](NC(=O)Cc3ccccc3)C(=O)N2[C@H]1C(=O)O` [penicillin G, reference compound], the “lowest concentration at which biological activity could be detected” value in assay [5] (positive controls) turned out to be 100 μg/mL.

What is called IC50 is the concentration needed to halve the response being measured. A word on the MIC: it is the lowest concentration found to suppress growth. A high value points to weaker potency.

(Values after paper PMC3111092 (Journal of natural products, 2011).)
